{"source": "patent US20250188123A1", "about": "“PROTEASE INHIBITORS” (Regents of the University of Minnesota, priority 2022, published 2025)", "tested_on": "cultured rat hippocampal neurons expressing GFP-tagged P301S tau", "test": "Accumulation of P301S tau in dendritic spines of cultured hippocampal neurons", "type": "cell-based", "details": "10 μM for 3 days", "text": "The disproportionate accumulation in dendritic spines of mutant tau linked to FTDP-17 depends upon tau-truncation by Casp2 (Zhao X, et al., Nat Med., 2016, 22, 1268-76). […] The P301S tau mutation linked to FTDP-17 (Bugiani O, et al., J Neuropathol Exp Neurol., 1999, 58, 667-677; and Lossos A, et al., J Neurol., 2003, 250, 733-740) was examined to determine whether Compound 1 could prevent the accumulation of tau in dendritic spines. Dissociated hippocampal neurons from postnatal day 0-1 rat pups were cultured. After 5-7 days in vitro (DIV), the neurons were co-transfected with plasmids encoding DsRed (to label neuronal morphology) and GFP-tagged wild-type or P301S mutant tau proteins (FIG. 2A), as previously described (Hoover B R, et al., Neuron., 2010, 68:1067-1081). Neurons at 17-18 DIV were incubated with 10 μM Compound 1 for 3 days and live neurons were imaged at 20-21 DIV.\nFor all cultured hippocampal neuron studies all human tau and DsRed constructs were expressed in the pRK5 vector and driven by the cytomegalovirus promoter (Clontech Inc.). Human tau proteins were N-terminally fused to enhance GFP (eGFP). The wild-type, native human tau construct encoded human four-repeat tau lacking the transcriptional-variant N-terminal sequences (0N4R) and contained exons 1, 4, 5, 7, 9-13, 14, and intron 13 (RRID: Addgene_46904). […]"}
{"smiles": "Cc1ccc2c(c1)CCN(C(=O)[C@@H](NC(=O)[C@H](CCCC(=O)O)NC(=O)C1Cc3ccccc3N1)C(C)C)[C@@H]2C(=O)N[C@H](C#N)CC(=O)O", "note": "(stereo partly drawn) [Compound 1, (8)-6-(((S)-1-((8)-1-(((S)-2-carboxy-1-cyanoethyl)carbamoyl)-6-methyl-3,4-dihydroisoquinolin-2(1H)-yl)-3-methyl-1-oxobutan-2-yl)amino)-5-((S)-indoline-2-carboxamido)-6-oxohexanoic acid]", "values": [{"measurement": "density of dendritic spines", "setting": "compared with untreated wild-type and P301S tau groups", "result": "no significant differences"}, {"measurement": "percentage of dendritic spines containing GFP-tagged tau", "setting": "neurons expressing P301S tau, untreated P301S 75.5%, wild-type tau 21.9%", "result": 24.8, "unit": "%"}]}
